Experimental data: US20220347299A1, “FLUORESCENT SYSTEMS FOR BIOLOGICAL IMAGING AND USES THEREOF” (LIGHTOX LIMITED, priority 2019, published 2022)

Assays:
[1] = Peak absorption and fluorescence emission wavelengths in solvents; format: physicochemical; conditions: for λem(max)/nm: 100 nM, excitation at peak of absorption; for λabs(max)/nm: 10 μM
Protocol: Peak absorption and fluorescence emission wavelengths of compounds 6, 7, 12, 13, 14, 15, 19, 23, 27, 30 and 34 were measured in a variety of solvents, and the results are shown in Table 1. Absorption measurements were recorded at a concentration of 10 μM, and emission measurements were recorded at a concentration of 100 nM. Emission spectra were recorded with excitation at the peak of absorption (S0→S1).

[2] = test system: HaCaT keratinocytes; assay: Co-staining with organelle markers, co-localisation (PCC); format: cell-based; conditions: 1 μM compound, 30 minutes, BODIPY ER-Tracker Red
Protocol: To study the localisation of compounds in biological cells, co-staining of compounds of formula I with specific organelle markers (fluorescent dyes and antibodies) within biological cells was conducted. The following compounds were studied: compounds 6, 7, 12, 13, 14 and 15. HaCaT keratinocyte cell lines were used for the following experimental procedures. The cells were incubated in cell culture media (94% Dulbecco's Modified Eagle Medium (DMEM), 5% Foetal Bovine Serum (FBS) and 1% Penicillin Streptomycin solution (Pen-Strep). The cells were plated in 8-well plates, at a concentration of 25,000 cells per ml. 200 μl of cell suspension was added to each well, and the cells were incubated for 2 days before staining and imaging was carried out. In order to visualise the mitochondria, cells were probed with the mitochondrial dye MitoTracker® Deep Red. Cells to be stained were incubated with 200 μl MitoTracker® Deep Red solution (200 nM MitoTracker® and 1 μM Formula I compound in cell culture media) per well (N=3) for 30 minutes. Nile Red was used to identify lipids within the cells. 200 μl Nile Red Lipophilic dye (10 μg/ml Nile Red and 1 μM Formula I compound in cell culture media) was added to each well (N=3) and incubated for 30 minutes. For the detection of lysosomes within the cells, LysoTracker® Red DND-99 dye was used. 200 μl LysoTracker® Red DND-99 (50 nM LysoTracker® and 1 μM Formula I compound solution in cell culture media) was added to each well (N=3) and incubated for 30 minutes. For visualisation of the endoplasmic reticulum (ER), cells were stained with BODIPY® ER-Tracker® Red. 200 μl BODIPY ER-Tracker® Red (1 μM BODIPY® and 1 μM Formula I compound solution in cell culture media) was added to each well (N=3) and incubated for 30 minutes. Following incubation, the cell culture media containing dye was removed, and cells were washed twice with 200 μl phosphate buffered saline (PBS). After washing, 200 μl PBS was added into each well for imaging. For visualisation of the nuclear lamina, cells were probed with an anti-lamin A/C antibody. The cells were plated on 22×22 mm cover slips (10,000 cells/ml) and incubated for 2 days before staining. The cells were washed with PBS to remove excess media before staining. The cells were fixed with 4% paraformaldehyde (PFA) for 10 minutes at room temperature, before being washed twice in PBS for 5 minutes. Following washing, the cells were permeabilised in 0.4% Triton X-100 in PBS for 10 minutes. The cells were subsequently washed three times in PBS for 5 minutes, before being incubated in blocking buffer (1% BSA, 0.1% fish gelatine and 0.1% Triton X-100 in PBS) for 15 minutes at room temperature. The cells were incubated in primary antibody (mouse anti-lamin A/C IgG in blocking buffer) for 1 hour at room temperature. The cells were then washed twice in blocking buffer and incubated in secondary antibody (anti-mouse Alexa-594 IgG in blocking buffer) for 30 minutes at room temperature. Cells were washed twice in PBS for 10 minutes at room temperature. For cell staining with compounds of formula I, 5 μM of the compound of formula I in PBS was added to the cells for 30 minutes at room temperature. Cells were then washed five times for 5 minutes in PBS. Following washing, the cells were mounted onto non-charged microscopy slides using 6 μl Mowiol® per cover slip as mounting media. A Zeiss 880 confocal microscope was used for all the imaging work. [table] Image) Coloc2 software was used to calculate co-localization statistics between the compounds of formula I and the organelle marker images. The background was subtracted from each image and a region of interest (ROI) was used to target the analysis. The point spread function (PSF) of each image was calculated as 2.0 and Coastes' iterations was set to 100. The statistic quantified was the Pearson's Correlation Coefficient (PCC). PCC gives a number ranging from +1 to −1:1=perfect co-localisation; 0=no relationship; and, −1=perfect anti-co-localisation. […]

[3] = test system: black-grass cells; assay: Cytotoxicity assay (FDA/PI) in black-grass cell suspension culture; format: cell-based
Protocol: 5 mL of black-grass cell suspension culture was treated with 0.1, 1, 5, and 10 μM of compound numbers 7, 14, 12 and 15 for 1 hour at room temperature. Cells treated with 0.1% DMSO were used as a control. Cells were irradiated (˜365 nm) for 5 minutes before being incubated at 25° C., 150 rpm for 24 hours. In addition, the cytotoxicity of the compounds without irradiation was also assessed. Cell viability of five biological replicates for each concentration were determined via fluorescence assay (FDA/PI) assay. Percentage of cell viability was calculated using following formulation:
% viability={live cells (FDA)/(live cells+dead cells)}×100
The statistical analysis of percentage of cell viability was performed through one-way analysis of variance (ANOVA) followed by Tukey HSD posthoc test using SPSS 23 (IBM, Chicago, Ill., USA).

[4] = Photophysical comparison of para- and ortho-substituted compounds in chloroform; format: physicochemical; conditions: for excitation by 405 nm violet excitation laser light source (absorption at this wavelength): Chloroform
Protocol: To compare the photophysical behaviour of para-substituted compounds of the invention with ortho-substituted compounds, compound 73 and reference compound 77 were synthesised in accordance with Example 1:
Solutions of compounds 73 and 77 were prepared at concentrations of 10 μM and 100 nM in chloroform. The absorption spectra of each compound (10 μM) was recorded using a CARY100 UV-Visible spectrometer, from 200-800 nm, and is shown in FIG. 3a after solvent background subtraction. […] Also shown in FIG. 3a is the approximate bandwidth of a 405 nm violet excitation laser light source that is commonplace on fluorescence microscopes used for cellular imaging studies.
To assess this effect and to compare the fluorescence emission properties of 73 and 77, solutions of both compounds in chloroform (100 nM) were excited at both 360 nm and 405 nm. At 360 nm excitation, 73 and 77 were excited with high efficiency since this wavelength is close to the absorption maxima of both compounds.
Both compounds were also excited at 405 nm to compare their respective suitabilities towards imaging using a typical fluorescence microscope.

[5] = 0.1, 1, 5, 10 μM, with and without ~365 nm irradiation 5 minutes, 24 hours

SMILES | λem(max)/nm ([1]; DCM) | λabs(max)/nm ([1]; DCM) | λem(max)/nm ([1]; Toluene) | λabs(max)/nm ([1]; Toluene) | average PCC Value with BODIPY ER-Tracker [2] | λem(max)/nm ([1]; Chloroform) | λabs(max)/nm ([1]; Chloroform) | other results
CC(C)(C)OC(=O)/C=C/c1ccc(C#Cc2ccc(N3CCNCC3)cc2)s1 [Compound 27, tert-butyl (2E)-3-(5-{2-[4-(piperazin-1-yl)phenyl]ethynyl}thiophen-2-yl) prop-2-enoate] | 524 nm | 371 nm | 493 nm | 380 nm | – | – | – | –
COC(=O)/C=C/c1ccc(C#Cc2ccc(N3CCN(C(C)=O)CC3)cc2)cc1 [Compound 13, methyl (2E)-3-(4-{2-[4-(4-acetylpiperazin-1-yl)phenyl]ethynyl}phenyl) prop-2-enoate] | 547 nm | 361 nm | 464 nm | 358 nm | −0.18 | – | – | –
NCCN1C(=O)/C(=C/c2ccc(C#Cc3ccc(N4CCC4)cc3)cc2)N=C1c1ccccc1 [Compound 34, (4Z)-1-(2-aminoethyl)-4-[(4-{2-[4-(azetidin-1-yl)phenyl]ethynyl}phenyl)methylidene]-2-phenyl-4,5-dihydro-1H-imidazol-5-one] | – | – | – | – | – | 628 nm | 432 nm | –
COC(=O)/C=C/c1ccc(C#Cc2ccc(N(C)CCNS(=O)(=O)c3ccc(C)cc3)cc2)cc1 [Compound 15, methyl (2E)-3-{4-[2-(4-{methyl[2-(4-methylbenzenesulfonamido)ethyl]amino}phenyl)ethynyl]phenyl}prop-2-enoate] | 545 nm | 377 nm | 473 nm | 381 nm | 0.30 | – | – | black-grass cell viability [3, 5]: did not reduce black-grass cell viability regardless of concentration or irradiation treatment
COC(=O)/C=C/c1ccc(C#Cc2ccc(N3CCN(C)CC3)cc2)cn1 [Compound 73, methyl (2E)-3-(5-{2-[4-(4-methylpiperazin-1-yl)phenyl]ethynyl}pyridin-2-yl)prop-2-enoate] | – | – | – | – | – | – | – | excitation by 405 nm violet excitation laser light source (absorption at this wavelength) ([4]; 10 μM): capable of efficient excitation; fluorescence emission at 360 nm excitation, compared to the other compound ([4]; chloroform, 100 nM): substantially stronger fluorescence emission; fluorescence emission at 405 nm excitation ([4]; chloroform, 100 nM): of a similar intensity to excitation at 360 nm; shift of fluorescence emission compared to compound 77 ([4]; chloroform, 100 nM, 360 nm excitation): significant bathochromic shift
COCCN1C(=O)/C(=C/c2ccc(C#Cc3ccc(N4CCNCC4)cc3)cc2)N=C1C [Compound 19, (4Z)-1-(2-methoxyethyl)-2-methyl-4-[(4-{2-[4-(piperazin-1-yl)phenyl]ethynyl}phenyl)methylidene]-4,5-dihydro-1H-imidazol-5-one] | – | – | 515 nm | 403 nm | – | 584 nm | 403 nm | λabs(max)/nm ([1]; MeOH): 395 nm
O=C1/C(=C/c2ccc(C#Cc3ccc(N4CCNCC4)cc3)cc2)N=C(c2ccccc2)N1CCN1CCOCC1 [Compound 23, (4Z)-1-[2-(morpholin-4-yl)ethyl]-2-phenyl-4-[(4-{2-[4-(piperazin-1-yl)phenyl]ethynyl}phenyl)methylidene]-4,5-dihydro-1H-imidazol-5-one] | – | – | – | – | – | 616 nm | 424 nm | –
COC(=O)/C=C/c1ccc(C#Cc2ccccc2N2CCN(C)CC2)cn1 [Compound 77, methyl (2E)-3-(5-{2-[2-(4-methylpiperazin-1-yl)phenyl]ethynyl}pyridin-2-yl)prop-2-enoate, reference compound] | – | – | – | – | – | – | – | excitation by 405 nm violet excitation laser light source (absorption at this wavelength) ([4]; 10 μM): absorbed only very weakly; fluorescence emission at 405 nm excitation ([4]; chloroform, 100 nM): only very weak fluorescence emission; absorption spectrum, ortho-position 77 relative to para-position 73 ([4]; chloroform, 10 μM, 200-800 nm): substantial hypsochromic shift and reduction in extinction coefficient
COC(=O)/C=C/c1ccc(C#Cc2ccc(N3CCC3)cc2)cc1 [Compound 30, methyl (2E)-3-(4-{2-[4-(azetidin-1-yl)phenyl]ethynyl}phenyl)prop-2-enoate] | – | – | – | – | – | 535 nm | 374 nm | –
COC(=O)/C=C/c1ccc(C#Cc2ccc(N3CCN(CCC[P+](c4ccccc4)(c4ccccc4)c4ccccc4)CC3)cc2)cc1.[Br-] [Compound 14, (3-{4-[4-(2-{4-[(1E)-3-methoxy-3-oxoprop-1-en-1-yl]phenyl}ethynyl)phenyl]piperazin-1-yl}propyl)triphenylphosphonium bromide] | 531 nm | 361 nm | 506 nm | 367 nm | 0.68 | – | – | black-grass cell viability ([3]; 1 μM, also in non-irradiation treatment): significantly reduced; dependence of cytotoxic effect on irradiation ([3]; black-grass cells, ~365 nm, 5 minutes): independent of irradiation
COC(=O)/C=C/c1ccc(C#Cc2ccc(N3CCNCC3)cc2)cc1 [Compound 7, methyl (2E)-3-(4-{2-[4-(piperazin-1-yl)phenyl]ethynyl}phenyl)prop-2-enoate] | 563 nm | 362 nm | 504 nm | 361 nm | 0.32 | – | – | black-grass cell viability [3, 5]: did not reduce black-grass cell viability regardless of concentration or irradiation treatment
